Results as given in US20220370468A1, “Methods of treating sleep disorders associated with pain” (Astellas Pharma Global Development, Inc., priority 2019, published 2022).

Test system: patients with fibromyalgia
Assay: Phase 2a study: Fibromyalgia Impact Questionnaire Revised (FIQR)
Assay type: in vivo, human
Settings: for FIQR total score improvement from baseline, LS mean difference versus placebo: ANCOVA
Description: A phase 2a, randomized, double-blind, placebo-controlled, parallel group study was conducted at 24 sites in the United States to assess the analgesic efficacy and safety of the compound of Formula (I) in patients with fibromyalgia. The study consisted of the following: a screening period of up to 42 days, which included a washout period and a 7-day baseline diary run-in; a 57-day double-blind randomized treatment period with site visits at Days 1, 15, 29, and 57; and a 4-week follow-up period consisting of a clinic visit after 2 weeks and a phone call after 4 weeks. The study was carried out in accordance with the Declaration of Helsinki and approved by the relevant Institutional Review Boards. All participants provided written informed consent prior to the initiation of any study procedures.
Male and female patients aged 18 to 80 years were included in the trial if they met the American College of Rheumatology (ACR) 1990 and 2010 fibromyalgia diagnostic criteria at screening (Wolfe et al., 1990; Wolfe et al., 2010b). The core diagnostic criteria for fibromyalgia are defined by the 1990 criteria (Wolfe et al., 1990), and while ACR has published newer criteria, the 1990 version is still commonly utilized in clinical trials. To meet ACR 1990 criteria, patients must have had widespread pain for at least 3 months, defined as the presence of pain on the right and left sides of the body, pain above and below the waist, and pain in the axial skeleton (cervical spine, anterior chest, thoracic spine, or low back) (Wolfe et al., 1990). They must also have had pain in at least 11 of 18 tender point sites on digital palpation performed with an approximate force of 4 kg. To meet the ACR 2010 criteria, patients needed to have a widespread pain index (WPI) score of ≥7 and a symptom severity (SS) scale score ≥5, or a WPI score 3-6 and an SS scale score ≥9 (Wolfe et al., 2010b). Symptoms must have been present at a similar level for at least 3 months and patients must have been free of any other disorder that could have explained the pain.
Eligible patients were randomized 1:1 using Interactive Response Technology to receive oral Compound of Formula (I) 15 mg (three capsules of 5 mg) or matching placebo capsules, each given once daily in the morning, with or without food, for 8 weeks.
Secondary efficacy endpoints included the number of patients achieving a ≥30% or ≥50% reduction in mean daily average pain score assessed by NRS (0 to 10 scale) from baseline to Week 8 and end of treatment (EOT; Day 57); change from baseline to Weeks 2, 4, 8, and EOT in the FIQR function, symptoms, and overall impact subscales; and overall improvement assessed by patient global impression of change (PGIC) (Rampakakis et al., 2015) at Weeks 2, 4, 8, and EOT.
Questionnaires on efficacy, such as FIQR and PGIC, were completed during study visits. The FIQR captures the full spectrum of problems related to fibromyalgia and the responses to therapy, ranging from activities of daily living, overall impact, and symptoms (Bennett et al., 2009). Patients answered each question on an 11-point NRS over a recall period of the last 7 days or the last time the activity was performed (for the physical function domain if the activity was not performed within the 7-day recall period). The PGIC is a self-administered 7-point Likert scale that asks patients to evaluate their fibromyalgia relative to baseline (from “very much improved” to “very much worse”) (Rampakakis et al., 2015).
In FIG. 2, the change from baseline in FIQR total score is depicted. The FIQR total score represents the sum of the three sub scale scores: symptom, function, and overall impact. The symptom sub scale accounts for 50%, the function subscale accounts for 30%, and the overall impact subscale accounts for 20% of the total score. Data from double-blind period are presented as LS mean±standard error; data from follow-up period are presented as mean±standard error. […]

SMILES: Cc1sc2cc(Cl)ccc2c1-c1ccc(N2CCO[C@H](CNC3CCC3)C2)c(C(=O)O)c1 [Compound of Formula (I)]
- FIQR total score improvement from baseline, LS mean difference versus placebo (EOT, LOCF imputation, P=0.050): −3.75
- FIQR overall impact subscale, LS mean difference versus placebo (Week 4, P=0.018): −1.34
- FIQR total score reduction from baseline, LS mean difference versus placebo (Week 4, P=0.033): −4.14
- FIQR symptoms subscale, LS mean difference versus placebo (Week 4, P=0.039): −3.73
- FIQR function subscale, LS mean difference versus placebo (Week 4, P=0.103): −2.97
- reduction from baseline in FIQR function, symptoms subscale, or overall impact subscale versus placebo (baseline to Week 8): no statistically significant differences
- FIQR total score improvement from baseline, LS mean difference versus placebo (baseline to Week 8, mBOCF imputation, P=0.036): −4.10
- FIQR total score reduction from baseline, LS mean difference versus placebo (baseline to Week 8, MMRM analysis, P=0.093): −3.27
